According to patent US8889874B2, “Imidazolone-chalcone derivatives as potential anticancer agent and process for the preparation thereof” (Council of Scientific and Industrial Research, priority 2010, dated 2014):
Like-named read-outs stand apart in the source and are kept apart here.

Columns and labels:
Assay in all cases: NCI anticancer screen, SRB assay, 48 h
Format in all cases: cell-based, human
[1] = test system: BT-549 (breast); conditions: Homo sapiens
In short: (§1)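 Sulforhodamine B protein assay read cell growth after 48 h of continuous compound exposure. Dose-response curves per cell line used at least five 10-fold-diluted concentrations, within a panel of fifty-three human lines from nine tumour types.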

[2] = test system: COLO 205 (colon); conditions: Homo sapiens, COLO 205
In short: as §1

[3] = test system: HCC-2998 (colon); conditions: Homo sapiens
In short: as §1

[4] = test system: HCT-116 (colon); conditions: Homo sapiens
In short: as §1

[5] = test system: HCT-15 (colon); conditions: Homo sapiens
In short: as §1

[6] = test system: HOP-62 (non-small cell lung); conditions: Homo sapiens
In short: as §1

[7] = test system: HT29 (colon); conditions: Homo sapiens
In short: as §1

[8] = test system: LOX IMVI (melanoma); conditions: Homo sapiens
In short: as §1

[9] = test system: M14 (melanoma); conditions: Homo sapiens
In short: as §1

[10] = test system: MCF7 (breast); conditions: Homo sapiens
In short: as §1

[11] = test system: MDA-MB-231/ATCC (breast); conditions: Homo sapiens
In short: as §1

[12] = test system: MDA-MB-435 (melanoma); conditions: Homo sapiens
In short: as §1

[13] = test system: NCI-H322M (non-small cell lung); conditions: Homo sapiens
In short: as §1

[14] = test system: NCI-H522 (non-small cell lung); conditions: Homo sapiens
In short: as §1

[15] = test system: NCI/ADR-RES (ovarian); conditions: Homo sapiens, NCI/ADR-RES
In short: as §1

[16] = test system: OVCAR-3 (ovarian); conditions: Homo sapiens
In short: as §1

[17] = test system: OVCAR-4 (ovarian); conditions: Homo sapiens
In short: as §1

[18] = test system: OVCAR-5 (ovarian); conditions: Homo sapiens
In short: as §1

[19] = test system: PC-3 (prostate); conditions: Homo sapiens
In short: as §1

[20] = test system: RPMI-8226 (leukemia cell line); conditions: Homo sapiens
In short: as §1

[21] = test system: RXF 393 (renal); conditions: Homo sapiens
In short: as §1

[22] = test system: SF-268 (CNS); conditions: Homo sapiens
In short: as §1

[23] = test system: SF-295 (CNS); conditions: Homo sapiens
In short: as §1

[24] = test system: SK-MEL-2 (melanoma); conditions: Homo sapiens
In short: as §1

[25] = test system: SNB-75 (CNS); conditions: Homo sapiens
In short: as §1

[26] = test system: TK-10 (renal); conditions: Homo sapiens
In short: as §1

[27] = test system: U251 (CNS); conditions: Homo sapiens
In short: as §1

[28] = test system: UACC-62 (melanoma); conditions: Homo sapiens
In short: as §1

[29] = test system: UO-31 (renal); conditions: Homo sapiens
In short: as §1

[30] = 48 h exposure, SRB, read-out: GI50
[31] = read-out: pGI50 (-log of molar concentration causing 50% inhibition of net cell growth) (converted)
[32] = COLO205, read-out: pGI50 (-log of molar concentration causing 50% inhibition of net cell growth) (converted)
[33] = HT-29, 48 h exposure, SRB, read-out: GI50
[34] = HT-29, read-out: pGI50 (-log of molar concentration causing 50% inhibition of net cell growth) (converted)
[35] = NCl/ADR-RES, 48 h exposure, SRB, read-out: GI50
[36] = PC-3, read-out: pGI50 (-log of molar concentration causing 50% inhibition of net cell growth) (converted)
[37] = one prostate cancer cell line (PC-3), exposure at least 48 hrs, read-out: GI50
[38] = RXF 393, 48 h exposure, SRB, read-out: GI50
[39] = RXF-393, read-out: pGI50 (-log of molar concentration causing 50% inhibition of net cell growth) (converted)
[40] = U-251, 48 h exposure, SRB, read-out: GI50
[41] = U-251, read-out: pGI50 (-log of molar concentration causing 50% inhibition of net cell growth) (converted)

Compound: COc1cc(/C=C/C(=O)c2cccc(-n3cc(-c4ccccc4)[nH]c3=O)c2)cc(OC)c1OC [5a, 4-phenyl-1-3-[(E)-3-(3,4,5-trimethoxyphenyl)-2-propenoyl]phenyl-2,3-dihydro-1H-2-imidazolone]
- GI50 [1, 30]: 1930 nM
- GI50 [1, 31]: 1950 nM
- GI50 [2, 32]: 1510 nM
- GI50 [2, 30]: 1510 nM
- GI50 [3, 30]: 1260 nM
- GI50 [3, 31]: 1260 nM
- GI50 [4, 30]: 330 nM
- GI50 [4, 31]: 331 nM
- GI50 [5, 30]: 1130 nM
- GI50 [5, 31]: 1120 nM
- GI50 [6, 30]: 4.12 µM
- GI50 [6, 31]: 4.07 µM
- GI50 [7, 33]: 660 nM
- GI50 [7, 34]: 661 nM
- GI50 [8, 30]: 480 nM
- GI50 [8, 31]: 479 nM
- GI50 [9, 30]: 1350 nM
- GI50 [9, 31]: 1350 nM
- GI50 [10, 30]: 310 nM
- GI50 [10, 31]: 309 nM
- GI50 [11, 30]: 2.17 µM
- GI50 [11, 31]: 2.19 µM
- GI50 [12, 30]: 1200 nM
- GI50 [12, 31]: 1200 nM
- GI50 [13, 30]: 2.02 µM
- GI50 [13, 31]: 2.04 µM
- GI50 [14, 30]: 950 nM
- GI50 [14, 31]: 955 nM
- GI50 [15, 35]: 1100 nM
- GI50 [15, 31]: 1100 nM
- GI50 [16, 30]: 1230 nM
- GI50 [16, 31]: 1230 nM
- GI50 [17, 30]: 1.88 µM
- GI50 [17, 31]: 1.86 µM
- GI50 [18, 30]: 1880 nM
- GI50 [18, 31]: 1860 nM
- GI50 [19, 36]: 3240 nM
- GI50 [19, 37]: 3260 nM
- GI50 [20, 30]: 620 nM
- GI50 [20, 31]: 617 nM
- GI50 [21, 38]: 1.71 µM
- GI50 [21, 39]: 1.7 µM
- GI50 [22, 30]: 1920 nM
- GI50 [22, 31]: 1910 nM
- GI50 [23, 30]: 1.9 µM
- GI50 [23, 31]: 1.91 µM
- GI50 [24, 30]: 2060 nM
- GI50 [24, 31]: 2040 nM
- GI50 [25, 30]: 4.47 µM
- GI50 [25, 31]: 4.47 µM
- GI50 [26, 30]: 3.02 µM
- GI50 [26, 31]: 3.02 µM
- GI50 [27, 40]: 630 nM
- GI50 [27, 41]: 631 nM
- GI50 [28, 30]: 1520 nM
- GI50 [28, 31]: 1510 nM
- GI50 [29, 30]: 1510 nM
- GI50 [29, 31]: 1510 nM

Compound: COc1cc(/C=C/C(=O)c2cccc(-n3cc(-c4ccc(Cl)cc4)[nH]c3=O)c2)ccc1O [3f, 4-(4-chlorophenyl)-1-3-[(E)-3-(4-hydroxy-3-methoxyphenyl)-2-propenoyl]phenyl-2,3-dihydro-1H-2-imidazolone]
- GI50 [1, 30]: 2520 nM
- GI50 [1, 31]: 2510 nM
- GI50 [2, 32]: 3390 nM
- GI50 [2, 30]: 3400 nM
- GI50 [3, 30]: 1850 nM
- GI50 [3, 31]: 1860 nM
- GI50 [4, 30]: 1460 nM
- GI50 [4, 31]: 1450 nM
- GI50 [5, 30]: 1800 nM
- GI50 [5, 31]: 1820 nM
- GI50 [6, 30]: 2.84 µM
- GI50 [6, 31]: 2.82 µM
- GI50 [7, 33]: 2970 nM
- GI50 [7, 34]: 2950 nM
- GI50 [8, 30]: 1630 nM
- GI50 [8, 31]: 1620 nM
- GI50 [9, 30]: 2860 nM
- GI50 [9, 31]: 2880 nM
- GI50 [10, 30]: 2300 nM
- GI50 [10, 31]: 2290 nM
- GI50 [11, 30]: 3.87 µM
- GI50 [11, 31]: 3.89 µM
- GI50 [12, 30]: 2250 nM
- GI50 [12, 31]: 2240 nM
- GI50 [13, 30]: 4.58 µM
- GI50 [13, 31]: 4.57 µM
- GI50 [14, 30]: 2360 nM
- GI50 [14, 31]: 2340 nM
- GI50 [15, 35]: 2280 nM
- GI50 [15, 31]: 2290 nM
- GI50 [16, 30]: 1560 nM
- GI50 [16, 31]: 1550 nM
- GI50 [17, 30]: 4.64 µM
- GI50 [17, 31]: 4.68 µM
- GI50 [18, 30]: 2000 nM
- GI50 [18, 31]: 2000 nM
- GI50 [19, 36]: 1950 nM
- GI50 [19, 37]: 1950 nM
- GI50 [20, 30]: 1330 nM
- GI50 [20, 31]: 1320 nM
- GI50 [21, 38]: 6.4 µM
- GI50 [21, 39]: 6.46 µM
- GI50 [22, 30]: 2500 nM
- GI50 [22, 31]: 2510 nM
- GI50 [23, 30]: 10.5 µM
- GI50 [23, 31]: 10.5 µM
- GI50 [24, 30]: 3660 nM
- GI50 [24, 31]: 3630 nM
- GI50 [25, 30]: 2.75 µM
- GI50 [25, 31]: 2.75 µM
- GI50 [26, 30]: 4.67 µM
- GI50 [26, 31]: 4.68 µM
- GI50 [27, 40]: 2230 nM
- GI50 [27, 41]: 2240 nM
- GI50 [28, 30]: 2740 nM
- GI50 [28, 31]: 2750 nM
- GI50 [29, 30]: 1670 nM
- GI50 [29, 31]: 1660 nM
